Data as given in ChEMBL document CHEMBL1142618, “Mycalamide D, a new cytotoxic amide from the New Zealand marine sponge Mycale species” (J Nat Prod, 2000).

Assays:
Type in all cases: functional, cell-based
LLC-PK1 = experiment: Cytotoxicity against pig LLC-PK1 cells after 96 hrs by MTT assay; details: Sus scrofa, LLC-PK1, 96 h
[1] = Cytotoxicity against human H441 cells after 96 hrs by MTT assay; details: NCI-H441, 96 h
SH-SY5Y = experiment: Cytotoxicity against human SH-SY5Y cells after 96 hrs by MTT assay
P388 = experiment: Cytotoxicity against mouse P388 cells after 96 hrs by MTT assay; details: P388, 96 h

Row | SMILES | IC50 (LLC-PK1) [nM] | IC50 [1] [nM] | IC50 (SH-SY5Y) [nM] | IC50 (P388) [nM]
1 | C=C1C[C@](OC)([C@H](O)C(=O)N[C@H]2OCO[C@H]3[C@@H]2O[C@H](C[C@H](O)CO)C(C)(C)[C@@H]3OC)O[C@H](C)[C@@H]1C [MYCALAMIDE A] | 0.65 | 0.46 | 0.52 | 5.2
2 | C=C1C[C@](OC)([C@H](O)C(=O)N[C@H]2OCO[C@H]3[C@@H]2O[C@H](C[C@@H](CO)OC)C(C)(C)[C@@H]3OC)O[C@H](C)[C@@H]1C [MYCALAMIDE B] | 19.4 | 9.3 | 6.42 | 1.3
3 | C=C1C[C@](OC)([C@H](O)C(=O)N[C@H]2OCO[C@H]3[C@@H]2O[C@H](C[C@H](O)CO)C(C)(C)[C@@H]3O)O[C@H](C)[C@@H]1C [MYCALAMIDE D] |  |  |  | 65.5
